The text below walks through data of PubChem BioAssay (NCI).

Holding throughout (experiment): DTP human tumour cell line panel, 48 h
Experiment [1] concerns RXF 393 renal.
Experiment [2] concerns PC-3 prostate.
The test system of experiment [3] is MALME-3M melanoma.
Experiment [4] relates to SN12C renal.
The test system of experiment [5] is SK-OV-3 ovarian.
In experiment [6] the test system is HL-60(TB) leukemia.
Experiment [7] relates to SK-MEL-28 melanoma.
Experiment [8] has as its system SF-295 CNS.
Experiment [9] has as its system K-562 leukemia.
The test system of experiment [10] is LOX IMVI melanoma.

Where “and” joins values, the source holds several entries; their conditions need not be identical. Equal values may be shown once.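 Dose response: 5 concentrations. Exposure: 48 h. Format: 96-well plates. Endpoint: linear interpolation; highest concentration if not reached. At the GI50, growth is halved. Definition used: TGI = concentration required for complete inhibition of growth.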

Regarding `CN1CCN(Cc2ccc(NC(=O)c3cncc(C#Cc4c(N)ncc5ccccc45)c3)cc2C(F)(F)F)CC1`, the GI50 – broadly, the concentration giving 50% growth inhibition – in experiment [1] was 0.708 µM; in experiment [2] it was 0.687 µM; in experiment [3], 0.31 µM; in experiment [4], 0.627 µM; in experiment [5], 1.13 µM; in [6] it was 0.16 µM. Further, the GI50 in [7] is 0.767 µM; in experiment [8], 0.786 µM; in [9] it was 0.005 µM; in experiment [10] it was 0.348 µM. Besides, the concentration for total growth inhibition (TGI) – broadly, the concentration at which net growth stops – in experiment [1] came out at 1.39 µM; in [2], 1.73 µM; in [3], 0.979 µM; in experiment [4], 1.31 µM; in experiment [5] it was 2.01 µM; in experiment [6] it was 0.781 µM. Moreover, the concentration for total growth inhibition (TGI) was 1.48 µM in experiment [7], 1.57 µM in experiment [8], 0.715 µM in experiment [9] and 0.979 µM in experiment [10].

Turning to `CNC(=O)c1sc(-n2cnc3cc(OC)c(OC)cc32)cc1OCc1ccccc1C(F)(F)F`, the GI50 in experiment [1] is > 25 µM; in experiment [2] it was > 25 µM; in experiment [3] it was > 25 µM; in experiment [4], > 25 µM; in experiment [5], > 25 µM; in experiment [6], > 15.8 µM. The GI50 in experiment [7] is > 25 µM; in experiment [8], > 21.4 µM; in [9], > 25 µM; in experiment [10] it was > 25 µM. Besides, the concentration for total growth inhibition (TGI) in [1], in [2], in experiment [3], in [4], in experiment [5] and in experiment [6] was > 25 µM throughout. The TGI in [7], in experiment [8], in [9] and in experiment [10] was > 25 µM throughout.

Take `N#Cc1ccc2c(-c3ccnc(NC4CC4)n3)c(-c3ccc(F)cc3)nn2c1`: the GI50 in experiment [1] was > 25 µM; in experiment [2], > 25 µM; in [3] it was > 25 µM; in [4] it was > 25 µM; in experiment [5], 22.4 µM; in experiment [6], > 25 µM. In addition, the GI50 in experiment [7], in experiment [8], in [9] and in [10] was > 25 µM in each case. Also, the total growth inhibition concentration (TGI) in experiment [1], in experiment [2], in experiment [3], in [4], in experiment [5] and in experiment [6] was > 25 µM each time. For the same compound, the TGI in experiment [7], in experiment [8], in experiment [9] and in [10] was > 25 µM each time.

Take `Cc1cnc(C(=O)Nc2nc3ccc(S(=O)(=O)Nc4ccc(C(C)(C)C)cc4)cc3[nH]2)cn1`: the GI50 in experiment [1] is 0.312 µM; in [2] it was 0.402 µM; in experiment [3] it was 0.59 µM; in [4] it was 0.592 µM; in experiment [5], 1.09 µM; in experiment [6], 0.304 µM. For the same compound, the GI50 in experiment [7] was 1.17 µM; in experiment [8], 0.401 µM; in [9], 0.314 µM; in [10] it was 0.79 µM. The TGI in [1] amounted to 1.86 µM; in experiment [2] it was 8.31 µM; in [3], 14.5 µM; in [4], 13.3 µM; in experiment [5] it was 17.1 µM; in [6], 1.07 µM. In addition, the total growth inhibition concentration (TGI) in [7] was found to be 14 µM; in experiment [8], 4.21 µM; in [9], 5.71 µM; in experiment [10], 13.1 µM.

Turning to `CSc1ccc(-c2cn3ccsc3n2)cc1`, the GI50 in experiment [1] was 5.19 µM; in [2], 18.9 µM; in [3] it was 22.1 µM; in experiment [4], 32.2 µM; in experiment [5], 59.7 µM; in experiment [6], 2.42 µM. In addition, the GI50 in experiment [7] was 27 µM; in experiment [8], 19 µM; in experiment [9], 4.85 µM; in [10] it was 8.6 µM. Moreover, the TGI in [1] was > 92 µM; in experiment [2] it was > 100 µM; in experiment [3], > 72.6 µM; in experiment [4], > 100 µM; in [5], > 100 µM; in experiment [6], > 50 µM. Besides, the TGI in [7] is > 100 µM; in experiment [8], > 86 µM; in experiment [9] it was > 100 µM; in experiment [10], > 100 µM.

Turning to `COc1ccc(/C(=C(\c2ccccc2)[N+](=O)[O-])c2ccc(OCCN3CCCC3)cc2)cc1`, the GI50 was 1.65 µM in experiment [1]; 4.53 µM in [2]; 1.57 µM in experiment [3]; 7.79 µM in experiment [4]; 5.5 µM in experiment [5]; 1.94 µM in experiment [6]. The GI50 was 1.77 µM in [7], 1.93 µM in [8], 1.1 µM in [9] and 2.05 µM in [10]. The concentration for total growth inhibition (TGI) in experiment [1] was found to be 3.76 µM; in experiment [2] it was 16.6 µM; in experiment [3], 3.43 µM; in [4], 22.4 µM; in experiment [5], 18.3 µM; in [6] it was 4.6 µM. The concentration for total growth inhibition (TGI) in experiment [7] was 3.38 µM; in [8], 5.39 µM; in [9], 6.14 µM; in [10], 6.73 µM.

Turning to `O=C(NOCCO)c1ccc2cncn2c1Nc1ccc(I)cc1F`, the 50% growth inhibitory concentration (GI50) was 0.188 µM and 0.303 µM in experiment [1]; > 10 µM and 45.4 µM in experiment [2]; 0.00203 µM and < 0.01 µM in experiment [3]; > 10 µM and 19.8 µM in experiment [4]; > 3.15 µM and 0.791 µM in [5]; 0.00191 µM and < 0.01 µM in [6]. Also, the GI50 in experiment [7] was 0.003 µM and < 0.01 µM; in experiment [8], > 56.5 µM; in experiment [9] it was 0.359 µM and 0.219 µM; in experiment [10] it was 0.0493 µM and 0.0635 µM. Further, the TGI was > 10 µM and 21.4 µM in experiment [1]; > 100 µM in experiment [2]; 0.0186 µM and < 0.01 µM in [3]; > 100 µM in [4]; > 96.2 µM in [5]; > 100 µM in experiment [6]. For the same compound, the TGI in [7] was 0.0717 µM and 0.198 µM; in [8] it was > 100 µM; in experiment [9] it was > 100 µM; in experiment [10] it was > 10 µM and 47.1 µM.

Take `COc1cc(OC)c(/C=C/S(=O)(=O)Cc2ccc(OC)c(N)n2)c(OC)c1`: the concentration for 50% growth inhibition (GI50) was < 0.01 µM in [1]; < 0.01 µM in experiment [2]; > 100 µM in experiment [3]; < 0.0171 µM in [4]; < 0.01 µM in experiment [5]; < 0.01 µM in experiment [6]. Also, the GI50 in experiment [8], in [9] and in experiment [10] was < 0.01 µM throughout. In addition, the total growth inhibition concentration (TGI) in [1] was > 100 µM; in experiment [2] it was > 100 µM; in experiment [3], > 100 µM; in experiment [4] it was > 100 µM; in experiment [5], > 100 µM; in experiment [6] it was < 0.0273 µM. The concentration for total growth inhibition (TGI) in [7], in [8], in experiment [9] and in experiment [10] was > 100 µM throughout.

Regarding `NS(=O)(=O)c1cccc(Nc2cc(-c3ccc(F)cc3)[nH]n2)c1`, the GI50 in experiment [1] is 17.8 µM; in [2], > 23.6 µM; in experiment [3], > 25 µM; in experiment [4] it was > 20.7 µM; in experiment [5] it was 13.2 µM; in experiment [6], > 25 µM. Moreover, the GI50 was > 25 µM in [7], > 25 µM in experiment [8], > 25 µM in [9] and 20.7 µM in experiment [10]. The TGI in experiment [1], in experiment [2], in experiment [3], in [4], in experiment [5] and in [6] was > 25 µM each time. The TGI in [7], in experiment [8], in experiment [9] and in experiment [10] was > 25 µM in each case.

On to `N#Cc1cnn(C(=O)c2nn(-c3ccc(Cl)cc3)cc2O)c1N`, for which the 50% growth inhibitory concentration (GI50) in experiment [1] is 0.161 µM; in experiment [2] it was 0.322 µM; in [3], 0.926 µM; in [4], 0.342 µM; in experiment [5], 0.521 µM; in experiment [6], 0.354 µM. Besides, the GI50 in [7] was 0.63 µM; in experiment [8], 0.163 µM; in experiment [9], 0.253 µM; in experiment [10], 0.434 µM. The TGI in experiment [1] came to 3.91 µM; in experiment [2] it was 7.28 µM; in experiment [3] it was 13.6 µM; in experiment [4] it was 17.5 µM; in experiment [5] it was 11.3 µM; in [6], 2.27 µM. In addition, the TGI in experiment [7] worked out at 27.3 µM; in experiment [8], 0.646 µM; in experiment [10], 12 µM.

Take `C=C(CN1CCN(c2cc(C(F)(F)F)cc(C(F)(F)F)c2)CC1)c1ccc(C(=O)Nc2ccccc2N)cc1`: the GI50 was 2.02 µM in experiment [1]; 2.92 µM in experiment [2]; 13.8 µM in experiment [3]; 2.47 µM in experiment [4]; 25.7 µM in experiment [5]; 1.05 µM in experiment [6]. The GI50 was 3.68 µM in [7], 7.29 µM in experiment [8], 1.69 µM in [9] and 2.34 µM in [10]. For the same compound, the total growth inhibition concentration (TGI) was 7.71 µM in experiment [1]; 31 µM in experiment [2]; 47.9 µM in experiment [3]; 13.4 µM in experiment [4]; > 100 µM in [5]; > 100 µM in experiment [6]. Besides, the TGI in experiment [7] was 15.9 µM; in [8], 62 µM; in experiment [9], > 100 µM; in experiment [10], > 100 µM.
